Results reported in patent US20240092799A1, “MNK INHIBITORS” (Hepagene Therapeutics (HK) Limited, priority 2020, published 2024).

Biological target: MNK2 (Homo sapiens (Human), UniProt Q9HBH9)
Assay: MNK Biochemical Enzymatic Assay (ADP-Glo), MNK2 binding assay
Description: MNK Biochemical Enzymatic Assay. This protocol establishes the binding assays for MNK1 and MNK2 using ADP-Glo assay. MNK phosphorylates the substrate and converts ATP to ADP, which was detected by Envision and used to reflect the reminding activity of MNK. Reagents and equipment used in the assay are listed below, followed by the protocol.
• a) Add 50 μL compound to 384-well dilution plate • b) Dilute compound 1:3 in succession in DMSO for each column for 10+0 pts (refer to dilution plate map) • c) Transfer 0.1 μL diluted compound solution in each row to 384 assay plate using Echo, each column containing 2 replicates (refer to assay plate map) • d) Add 5 μL enzyme working solution to 384-well assay plate, centrifuge 1000 RPM for 1 min • e) Incubate at 25° C. for 15 min • f) Add 5 μL substrate working solution to initiate reaction • g) Incubate at 25° C. for 60 min • h) Add 10 μL ADP Glo reagent, centrifuge 1000 RPM for 1 min • i) Incubate at 25° C. for 60 min • j) Add 20 μL kinase detection reagent, centrifuge 1000 RPM for 1 min • k) Incubate at 25° C. for 60 min • l) Read on Envision for US LUM as RLU • m) Data analysis: IC50s were determined based on a non-linear regression analysis of data collected.

MNK2, sequence (Q9HBH9 whole entry): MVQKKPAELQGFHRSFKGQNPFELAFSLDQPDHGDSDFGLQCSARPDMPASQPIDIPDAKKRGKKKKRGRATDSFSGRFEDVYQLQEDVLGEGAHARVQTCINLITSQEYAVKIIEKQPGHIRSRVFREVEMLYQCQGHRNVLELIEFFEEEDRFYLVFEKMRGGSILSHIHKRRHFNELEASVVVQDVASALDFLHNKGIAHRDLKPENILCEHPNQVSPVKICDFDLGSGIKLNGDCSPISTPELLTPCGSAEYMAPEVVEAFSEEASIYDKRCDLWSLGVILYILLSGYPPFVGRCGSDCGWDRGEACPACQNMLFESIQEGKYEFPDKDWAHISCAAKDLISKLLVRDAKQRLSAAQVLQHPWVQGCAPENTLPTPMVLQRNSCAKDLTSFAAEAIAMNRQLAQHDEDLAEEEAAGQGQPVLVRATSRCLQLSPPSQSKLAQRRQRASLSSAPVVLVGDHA

Row | SMILES | IC50
1 | Nc1cc(Nc2cc3c(s2)C(=O)NC32CCOCC2)ncn1 [Compound XXII, 2′-((6-Aminopyrimidin-4-yl)amino)-2,3,5,6-tetrahydrospiro[pyran-4,4′-thieno[2,3-c]pyrrol]-6′(5′H)-one] | 0.01 to 0.1 µM
2 | Nc1cc(Nc2cc3c(s2)C(=O)NC32CCNCC2)ncn1 [Compound VIII-A, 2′-((6-aminopyrimidin-4-yl)amino)spiro[piperidine-4,4′-thieno[2,3-c]pyrrol]-6′(5′H)-one] | 0.01 to 0.1 µM
3 | Nc1cc(Nc2cc3c(s2)C(=O)NC32CCCC2)ncn1 [Compound X-E, 2′-((6-aminopyrimidin-4-yl)amino)spiro[cyclopentane-1,4′-thieno[2,3-c]pyrrol]-6′(5′H)-one] | 0.01 to 0.1 µM
4 | COc1c(NC(=O)C2CC2)ncnc1Nc1cc2c(s1)C(=O)NC21CCCCC1 [Compound XX-B, N-(5-Methoxy-6-((6′-oxo-5′,6′-dihydrospiro[cyclohexane-1,4′-thieno[2,3-c]pyrrol]-2′-yl)amino)pyrimidin-4-yl)cyclopropanecarboxamide] | 0.1 to 1 µM
5 | O=C1NC2(CCCCC2)c2cc(Nc3cc(Nc4ccncc4)ncn3)sc21 [Compound XXIII-O, 2′-((6-(pyridin-4-ylamino)pyrimidin-4-yl)amino)spiro[cyclohexane-1,4′-thieno[2,3-c]pyrrol]-6′(5′H)-one] | 0.01 to 0.1 µM
6 | O=C1NC2(CCCCC2)c2cc(Nc3ncnc(NC(=O)C4CC4)c3Cl)sc21 [Compound XX-7, N-(5-Chloro-6-((6′-oxo-5′,6′-dihydrospiro[cyclohexane-1,4′-thieno[2,3-c]pyrrol]-2′-yl)amino)pyrimidin-4-yl)cyclopropanecarboxamide] | 0.1 to 1 µM
7 | Cc1cc(-c2cc(-c3cc(N)ncn3)no2)c(=O)n2c1C(=O)NC21CCCCC1 [Compound XVIII, 6′-(3-(6-Aminopyrimidin-4-yl)isoxazol-5-yl)-8′-methyl-2′H-spiro[cyclohexane-1,3′-imidazo[1,5-a]pyridine]-1′,5′-dione] | > 1 µM
8 | O=C1NC2(CCCCC2)c2cc(Nc3cc(N4CCCC4)ncn3)sc21 [Compound XXIII-H, 2′-((6-(Pyrrolidin-1-yl)pyrimidin-4-yl)amino)spiro[cyclohexane-1,4′-thieno[2,3-c]pyrrol]-6′(5′H)-one] | > 1 µM
9 | O=C1NC2(CCCCC2)c2cc(Nc3cc(NCC4CCCO4)ncn3)sc21 (centres unmarked) [Compound XXIII-Q, 2′-((6-(((tetrahydrofuran-2-yl)methyl)amino)pyrimidin-4-yl)amino)spiro[cyclohexane-1,4′-thieno[2,3-c]pyrrol]-6′(5′H)-one] | 0.01 to 0.1 µM
10 | O=C1NC2(CCCCC2)c2cc(Nc3cc(NC4CCNC4)ncn3)sc21 (centres unmarked) [Compound XXIII-R, 2′-((6-(pyrrolidin-3-ylamino)pyrimidin-4-yl)amino)spiro[cyclohexane-1,4′-thieno[2,3-c]pyrrol]-6′(5′H)-one] | 0.1 to 1 µM
11 | O=C(Nc1cc(Nc2cc3c(s2)C(=O)NC32CCCCC2)ncn1)c1ccccc1 [Compound XX-E, N-(6-((6′-oxo-5′,6′-dihydrospiro[cyclohexane-1,4′-thieno[2,3-c]pyrrol]-2′-yl)amino)pyrimidin-4-yl)benzamide] | 0.01 to 0.1 µM
12 | O=C1NC2(CCCCC2)c2cc(Nc3cc(Nc4ccccc4F)ncn3)sc21 [Compound XXIV-E, 2′-((6-((2-fluorophenyl)amino)pyrimidin-4-yl)amino)spiro[cyclohexane-1,4′-thieno[2,3-c]pyrrol]-6′(5′H)-one] | 0.01 to 0.1 µM

Other lines, results leading:

Row | IC50 | SMILES
13 | 0.01 to 0.1 µM | Cc1cc(Nc2cc(N[C@H]3CCCOC3)ncn2)[n+]([O-])c2c1C(=O)NC21CCCCC1 [Compound XXIX-E, (S)-4′-methyl-5′-oxo-2′-((6-((tetrahydro-2H-pyran-3-yl)amino)pyrimidin-4-yl)amino)-5′,6′-dihydrospiro[cyclohexane-1,7′-pyrrolo[3,4-b]pyridine] 1′-oxide]
14 | 0.1 to 1 µM | Cc1cc(Nc2cc(NC3=NC(C)(C)CO3)ncn2)[n+]([O-])c2c1C(=O)NC21CCCCC1 [Compound XXIX-M, 2′-((6-((4,4-dimethyl-4,5-dihydrooxazol-2-yl)amino)pyrimidin-4-yl)amino)-4′-methyl-5′-oxo-5′,6′-dihydrospiro[cyclohexane-1,7′-pyrrolo[3,4-b]pyridine] 1′-oxide]
15 | 0.01 to 0.1 µM | Cc1cc(Nc2ncnc3[nH]cnc23)[n+]([O-])c2c1C(=O)NC21CCCCC1 [Compound XXIX-O, 2′-((9H-purin-6-yl)amino)-4′-methyl-5′-oxo-5′,6′-dihydrospiro[cyclohexane-1,7′-pyrrolo[3,4-b]pyridine] 1′-oxide]
16 | 0.01 to 0.1 µM | Cc1cc(Nc2cc(NC(=O)c3ccccn3)ncn2)[n+]([O-])c2c1C(=O)NC21CCCCC1 [Compound XXIX-AAF, 4′-methyl-5′-oxo-2′-((6-(picolinamido)pyrimidin-4-yl)amino)-5′,6′-dihydrospiro[cyclohexane-1,7′-pyrrolo[3,4-b]pyridine] 1′-oxide]
17 | 0.01 to 0.1 µM | Cc1cccnc1Nc1cc(Nc2cc(C)c3c([n+]2[O-])C2(CCCCC2)NC3=O)ncn1 [Compound XXIX-AZ, 4′-methyl-2′-((6-((3-methylpyridin-2-yl)amino)pyrimidin-4-yl)amino)-5′-oxo-5′,6′-dihydrospiro[cyclohexane-1,7′-pyrrolo[3,4-b]pyridine] 1′-oxide]
18 | 0.1 to 1 µM | Cc1cc(Nc2cc(NC3CCOCC3)ncn2)[n+]([O-])c2c1C(=O)NC21CCCCC1 [Compound XXIX-R, 4′-methyl-5′-oxo-2′-((6-((tetrahydro-2H-pyran-4-yl)amino)pyrimidin-4-yl)amino)-5′,6′-dihydrospiro[cyclohexane-1,7′-pyrrolo[3,4-b]pyridine] 1′-oxide]
19 | 0.01 to 0.1 µM | Cc1cc(Nc2ncnc3c2CCN3)[n+]([O-])c2c1C(=O)NC21CCCCC1 [Compound XXIX-AB, 2′-((6,7-dihydro-5H-pyrrolo[2,3-d]pyrimidin-4-yl)amino)-4′-methyl-5′-oxo-5′,6′-dihydrospiro[cyclohexane-1,7′-pyrrolo[3,4-b]pyridine] 1′-oxide]
20 | > 1 µM | Cc1cc(Nc2ncnc(Nc3ccccn3)c2C)[n+]([O-])c2c1C(=O)NC21CCCCC1 [Compound XXIX-AN, 4′-methyl-2′-((5-methyl-6-(pyridin-2-ylamino)pyrimidin-4-yl)amino)-5′-oxo-5′,6′-dihydrospiro[cyclohexane-1,7′-pyrrolo[3,4-b]pyridine] 1′-oxide]
21 | 0.01 to 0.1 µM | Cc1cc(Nc2cc(N[C@H]3CCC[C@@H]3O)ncn2)[n+]([O-])c2c1C(=O)NC21CCCCC1 [Compound XXIX-V, 2′-((6-(((1S,2S)-2-hydroxycyclopentyl)amino)pyrimidin-4-yl)amino)-4′-methyl-5′-oxo-5′,6′-dihydrospiro[cyclohexane-1,7′-pyrrolo[3,4-b]pyridine] 1′-oxide]
22 | 0.0001 to 0.01 µM | Cc1cc(Nc2cc(Nc3ccc(C4=CCOCC4)cn3)ncn2)[n+]([O-])c2c1C(=O)NC21CCCCC1 [Compound XXIX-AAS, 2′-((6-((5-(3,6-dihydro-2H-pyran-4-yl)pyridin-2-yl)amino)pyrimidin-4-yl)amino)-4′-methyl-5′-oxo-5′,6′-dihydrospiro[cyclohexane-1,7′-pyrrolo[3,4-b]pyridine] 1′-oxide]
23 | 0.01 to 0.1 µM | Cc1cc(Nc2cc(Nc3ccncc3)ncn2)[n+]([O-])c2c1C(=O)NC21CCCCC1 [Compound XXIX-AK, 4′-methyl-5′-oxo-2′-{[6-(pyridin-4-ylamino)pyrimidin-4-yl]amino}-6′H-Spiro[cyclohexane-1,7′-pyrrolo[3,4-b]pyridin]-1′-ium-1′-olate]
24 | > 1 µM | COc1c(Nc2nc3c(s2)C(=O)NC32CCCCC2)ncnc1N[C@H]1CCOC1 [Compound XXVIII-F, (S)-2′-((5-methoxy-6-((tetrahydrofuran-3-yl)amino)pyrimidin-4-yl)amino)spiro[cyclohexane-1,4′-pyrrolo[3,4-d]thiazol]-6′(5′H)-one]
25 | 0.01 to 0.1 µM | Cc1cc(Nc2cc(NCC3CCCO3)ncn2)[n+]([O-])c2c1C(=O)NC21CCCCC1 (centres unmarked) [Compound XXIX-P, 4′-methyl-5′-oxo-2′-((6-(((tetrahydrofuran-2-yl)methyl)amino)pyrimidin-4-yl)amino)-5′,6′-dihydrospiro[cyclohexane-1,7′-pyrrolo[3,4-b]pyridine] 1′-oxide]
26 | 0.01 to 0.1 µM | Cc1cc(Nc2cc(NCC3CCOC3)ncn2)[n+]([O-])c2c1C(=O)NC21CCCCC1 (centres unmarked) [Compound XXIX-AV, 4′-methyl-5′-oxo-2′-((6-(((tetrahydrofuran-3-yl)methyl)amino)pyrimidin-4-yl)amino)-5′,6′-dihydrospiro[cyclohexane-1,7′-pyrrolo[3,4-b]pyridine] 1′-oxide]
27 | 0.1 to 1 µM | CCOC(=O)C1CCc2c(sc3ncnc(Nc4cc5c(s4)C(=O)NC54CCCCC4)c23)C1 (centres unmarked) [Compound XXV-5, Ethyl 4-((6′-oxo-5′,6′-dihydrospiro[cyclohexane-1,4′-thieno[2,3-c]pyrrol]-2′-yl)amino)-5,6,7,8-tetrahydrobenzo[4,5]thieno[2,3-d]pyrimidine-7-carboxylate]
28 | 0.01 to 0.1 µM | O=C1NC2(CCCCC2)c2cc(Nc3ncnc4cccnc34)sc21 [Compound XXX, 2′-(pyrido[3,2-d]pyrimidin-4-ylamino)spiro[cyclohexane-1,4′-thieno[2,3-c]pyrrol]-6′(5′H)-one]
29 | 0.01 to 0.1 µM | COCCNc1cc(Nc2cc(C)c3c([n+]2[O-])C2(CCCCC2)NC3=O)ncn1 [Compound XXIX-B, 2′-((6-((2-methoxyethyl)amino)pyrimidin-4-yl)amino)-4′-methyl-5′-oxo-5′,6′-dihydrospiro[cyclohexane-1,7′-pyrrolo[3,4-b]pyridine] 1′-oxide]
